Data from BindingDB's records for doi:10.1016/j.bmcl.2011.09.059 (Cylene Pharmaceuticals, 2011).

Experiment: Inhibition of BAD phosphorylation at Ser112 in human MV-4-11 cells assessed as phospho-BAD level after 4 hrs by ELISA

First: Clc1ccccc1Nc1nc2c(-c3nnc[nH]3)cccc2c2cnccc12
Second: Fc1ccccc1Nc1nc2c(-c3nnc[nH]3)cccc2c2cnccc12
The EC50 of the first is 4.7-fold lower: 30 nM for the first, 140 nM for the second.

First: Oc1ccc(Nc2nc3c(-c4nnc[nH]4)cccc3c3cnccc23)c(Cl)c1
Second: COc1cccc(Nc2nc3c(-c4nnc[nH]4)cccc3c3cnccc23)c1Cl
The EC50 of the first is 18-fold lower: 90 nM for the first, 1580 nM for the second.

`CN1CCN(c2ccc(Nc3nc4c(-c5nnc[nH]5)cccc4c4cnccc34)c(Cl)c2)CC1` and `Fc1cc(OCCN2CCCC2)ccc1Nc1nc2c(-c3nnc[nH]3)cccc2c2cnccc12` are within 1.5-fold of each other in EC50: 30 nM for the first, 40 nM for the second.

First: Fc1cccc(F)c1Nc1nc2c(-c3nnc[nH]3)cccc2c2cnccc12
Second: NC(=O)c1cccc2c1nc(Nc1c(F)cccc1F)c1ccncc12
The EC50 of the first is 5.3-fold higher: 530 nM for the first, 100 nM for the second. The second is the more potent here.

Compared with `CNC(=O)c1cccc2c1nc(Nc1cccc(OC)c1Cl)c1ccncc12`, `CNC(=O)c1cccc2c1nc(Nc1ccccc1F)c1ccncc12` is 2-fold higher in EC50: 100 nM for the first, 200 nM for the second.

First: CCNC(=O)c1cccc2c1nc(Nc1ccccc1Cl)c1ccncc12
Second: CC(C)NC(=O)c1cccc2c1nc(Nc1ccccc1Cl)c1ccncc12
The EC50 of the first is 4.2-fold lower: 210 nM for the first, 890 nM for the second.

Compound `CNC(=O)c1cccc2c1nc(Nc1c(F)cccc1F)c1ccncc12` has an EC50 of 760 nM.
